{
  "source": "patent US6177409A",
  "about": "“Method for the site specific synthesis of novel 3-hydroxypyridin-4(1H)ons derivatives from aminomonosaccharides or aminoitols, products obtained by this method and their applications” (priority 1996, dated 2001)",
  "key": {"in vivo": {"assay": "in vivo", "conditions": "mouse, in vivo", "experimental": "(§1) The samples are put in a solution either in water or in a mixture of water-DMSO (3:2; v/v) so as to obtain solutions of varying concentrations,either lower than or equal to 130 g·L^-1; the volumes injected are calculated on the basis of 0.2 mL for a mouse body weight of 20 g.\n(§2) The toxicity is evaluated starting from aqueous solutions, either buffered or not with NaH2 PO4 or else with Na2 HPO4, or else after addition of a stoichiometric quantity of NaHCO3.\n(§3) The 2-methyl-3-hydroxypyridine-4(1H)-one derivatives of glycerol (14), of xylitol (17), of mono-acetone xylose (12) and of solketal (11) were injected by I. V. route.\n(§4) The 2-methyl-3-hydroxypyridine-4(1H)-one compound of diacetone xylitol (10) was injected by I. P. route."}, "mice": {"tested_on": "mice", "assay": "in vivo", "experimental": "as §1, §2, §3, §4"}, "[1]": {"conditions": "male and female mice, I.V., (maximum solubility)"}},
  "data": [
    {"smiles": "Cc1c(O)c(=O)ccn1CC1OC(C)(C)OC1C1COC(C)(C)O1", "note": "(centres unmarked) [Compound 10, 1-(2',3': 4',5'-di-O-isopropylidene-xylityl)-2-methyl-3-hydroxypyridine-4(1H)-one]", "values": [
      {"measurement": "LD50", "setting": "in vivo; ip, LD50", "result": "> 650", "unit": "mg/kg"},
      {"measurement": "toxicity compared with L1", "setting": "mice; mice", "result": "weaker toxicity than L1"},
      {"measurement": "Macroscopic lesions of visceral organs", "setting": "mice; mouse, in vivo, ip", "result": "No visceral organ presented macroscopic lesions"},
      {"measurement": "Mortality (number of mice)", "setting": "mice; mouse, in vivo, ip, 325 mg/kg", "result": 0},
      {"measurement": "Secondary effects", "setting": "mice; mouse, in vivo, ip, 325 mg/kg", "result": "none (5/5)"},
      {"measurement": "Mortality (number of mice)", "setting": "mice; mouse, in vivo, ip, 650 mg/kg", "result": 0},
      {"measurement": "Secondary effects", "setting": "mice; mouse, in vivo, ip, 650 mg/kg", "result": "none (5/5)"},
      {"measurement": "solubility at the doses studied", "setting": "Solubility in water; acute toxicity doses, compared with L1", "result": "less soluble at the doses studied"},
      {"measurement": "solubility in water", "setting": "Solubility in water; water", "result": "weak"}
    ]},
    {"smiles": "Cc1c(O)c(=O)ccn1CC1COC(C)(C)O1", "note": "(centres unmarked) [Compound 11, 1-(2',3'-O-isopropylidene-glyceryl)-2-methyl-3-hydroxypyridine-4(1H)-one]", "values": [
      {"measurement": "LD50", "setting": "in vivo; iv, LD50 ± SD", "result": "817 ± 75", "unit": "mg/kg"},
      {"measurement": "toxicity compared with L1", "setting": "mice; mice", "result": "toxicity higher than that of L1"},
      {"measurement": "LD50 ± SD", "setting": "mice; mouse, in vivo, iv", "result": "745 ± 84", "unit": "mg/kg"},
      {"measurement": "neurophysiological effects", "setting": "mice; mouse, in vivo, iv", "result": "induces adverse neurophysiological effects"},
      {"measurement": "Mortality (number of mice)", "setting": "mice; mouse, in vivo, iv, 500 mg/kg", "result": 0},
      {"measurement": "Mortality times", "setting": "mice; mouse, in vivo, iv, 650 mg/kg", "result": 3, "unit": "min"},
      {"measurement": "Mortality (number of mice)", "setting": "mice; mouse, in vivo, iv, 800 mg/kg", "result": 2},
      {"measurement": "Mortality (number of mice)", "setting": "mice; mouse, in vivo, iv, 1000 mg/kg", "result": 4},
      {"measurement": "Secondary effects", "setting": "mice; mouse, in vivo, iv, 1000 mg/kg", "result": "1 min. convulsive phase followed by 10 min. of drop in spontaneous activity (10/10)"},
      {"measurement": "Mortality (number of mice)", "setting": "mice; mouse, in vivo, iv, 1300 mg/kg", "result": 5},
      {"measurement": "Mortality times", "setting": "mice; mouse, in vivo, iv, 1300 mg/kg", "result": "30-90"},
      {"measurement": "Secondary effects", "setting": "mice; mouse, in vivo, iv, 1300 mg/kg", "result": "death preceded by a marked convulsive phase (10/10)"}
    ]},
    {"smiles": "Cc1c(O)c(=O)ccn1C[C@H]1O[C@@H]2OC(C)(C)O[C@@H]2[C@H]1O", "note": "[Compound 12, 1-(1',2'-O-isopropylidene-α-D-xylofuranose-5-yl)-2-methyl-3-hydroxypyridine-4-(1H)-one]", "values": [
      {"measurement": "LD10", "setting": "mice; female mice, I.V.", "result": 1000, "unit": "mg/kg"},
      {"measurement": "Acute toxicity in mice", "setting": "mice; male mice, I.V.", "result": "totally innocuous at 1300 mg.kg^-1"},
      {"measurement": "toxicity compared with L1", "setting": "mice; mice", "result": "less toxic than L1"},
      {"measurement": "first toxic effects (=LD10)", "setting": "mice; mice, I.V.", "result": 1300, "unit": "mg/kg"},
      {"measurement": "Cause of death", "setting": "mice; mouse, in vivo, iv, 1000 mg/kg", "result": "respiratory deficiency"},
      {"measurement": "Mortality times", "setting": "mice; mouse, in vivo, iv, 1000 mg/kg", "result": 4, "unit": "min"},
      {"measurement": "Mortality times", "setting": "mice; mouse, in vivo, iv, 1300 mg/kg", "result": "360 to 1080", "unit": "min"}
    ]},
    {"smiles": "Cc1c(O)c(=O)ccn1CC(O)CO", "note": "(centres unmarked) [Compound 14, 1-glyceryl-2-methyl-3-hydroxypyridine-4(1H)-one]", "values": [
      {"measurement": "Mortality (number of mice)", "setting": "mice; female, I.V., 1300 mg/kg, water 60/DMSO 40, 5 mice", "result": 0},
      {"measurement": "Mortality (number of mice)", "setting": "mice; female, I.V., 1300 mg/kg, water, 5 mice", "result": 0},
      {"measurement": "Acute toxicity in mice", "setting": "mice; [1]", "result": "totally innocuous at 1300 mg.kg^-1"},
      {"measurement": "Mortality (number of mice)", "setting": "mice; male, I.V., 1300 mg/kg, water 60/DMSO 40, 5 mice", "result": 0},
      {"measurement": "Mortality (number of mice)", "setting": "mice; male, I.V., 1300 mg/kg, water, 5 mice", "result": 0},
      {"measurement": "toxicity at 1300 mg/kg", "setting": "mice; mice, I.V., 1300 mg.kg^-1, running text", "result": "non-toxic"},
      {"measurement": "solubility", "setting": "Solubility in water; water", "result": "> 130", "unit": "mg/mL"}
    ]},
    {"smiles": "Cc1c(O)c(=O)ccn1CC(O)C(O)C(O)CO", "note": "(centres unmarked) [Compound 17, 1-xylityl-2-methyl-3-hydroxypyridine-4(1H)-one]", "values": [
      {"measurement": "Acute toxicity in mice", "setting": "mice; [1]", "result": "totally innocuous at 1000 mg.kg^-1"},
      {"measurement": "toxicity compared with L1", "setting": "mice; mice", "result": "less toxic than L1"},
      {"measurement": "first toxic effects (=LD10)", "setting": "mice; mice, I.V.", "result": 1300, "unit": "mg/kg"},
      {"measurement": "Onset of significant decrease in spontaneous activity after injection", "setting": "mice; mouse, in vivo, iv", "result": "~2", "unit": "h"},
      {"measurement": "Mortality (number of mice)", "setting": "mice; mouse, in vivo, iv, 650 mg/kg", "result": 0},
      {"measurement": "Secondary effects", "setting": "mice; mouse, in vivo, iv, 650 mg/kg", "result": "none (5/5)"},
      {"measurement": "Mortality (number of mice)", "setting": "mice; mouse, in vivo, iv, 1000 mg/kg", "result": 0},
      {"measurement": "Secondary effects", "setting": "mice; mouse, in vivo, iv, 1000 mg/kg", "result": "none (5/5)"},
      {"measurement": "Mortality (number of mice)", "setting": "mice; mouse, in vivo, iv, 1300 mg/kg", "result": 0}
    ]},
    {"smiles": "Cc1c(O)c(=O)ccn1C", "note": "[Compound L1, 1.2-dimethyl-3-hydroxypyridine-4(1H)-one, reference compound]", "values": [
      {"measurement": "mortality", "setting": "in vivo; 1300 mg/kg", "result": 100, "unit": "%"},
      {"measurement": "Secondary effects", "setting": "mice; mouse, in vivo, ip, 650 mg/kg, pH 7", "result": "spontaneous decrease in activity xx min. before death (5/5)"},
      {"measurement": "Secondary effects", "setting": "mice; mouse, in vivo, iv, 325 mg/kg, pH 2.5", "result": "irritation at injection, spontaneous decrease in activity 2-4 min. (5/5)"}
    ]}
  ]
}
